Results on two compounds are retold here after ChEMBL document CHEMBL5113438, “Discovery of highly potent and selective CRBN-recruiting EGFRL858R/T790M degraders in vivo” (Eur J Med Chem, 2022).

Calls of active or inactive are those of the source. The rule behind the calls is not given here.

Series [1] concerns NCI-H1299. Put plainly: Antiproliferative activity against human NCI-H1299 cells expressing wild type EGFR incubated for 72 hrs by CCK-8 assay. The class given is functional, cell-based. The following applies: NCI-H1299, 72 h.
Series [2] has as its system NCI-H1975. Put plainly: Antiproliferative activity against human NCI-H1975 cells expressing EGFR L858R/T790M incubated for 72 hrs by CCK-8 assay. The class given is functional, cell-based. The settings on record: NCI-H1975, 72 h. A general note: Tetrazolium assays rely on reduction of a dye to a coloured formazan, in cell work by metabolically active cells.
For series [3], the system named is HMEC. Briefly: Cytotoxicity activity against HMEC cells upto 300 uM incubated for 72 hrs by CCK-8 assay. The class given is toxicity, cell-based. The settings on record: human.
Series [4] deals with L02. Briefly: Cytotoxicity activity against human L02 cells upto 300 uM incubated for 72 hrs by CCK-8 assay. The class given is toxicity, cell-based. The following applies: l02, 72 h.
Series [5] deals with Protein cereblon/Epidermal growth factor receptor (Homo sapiens, UniProt P00533+Q96SW2, L858R/T790M). Put plainly: Protac activity at CRBN/EGFR L858R/T790M mutant in human NCI-H1975 cells assessed as induction of EGFR degradation incubated for 72 hrs by Western blot analysis. Type of series: cell-based. For orientation: Immunoblotting shows a protein as a band on a membrane.

For series [6], the system named is NCI-H1975. Briefly: Induction of apoptosis in human NCI-H1975 cells assessed as viable cells at 0.1 uM incubated for 48 hrs by AnnexinV-FITC/propidium iodide staining based flow cytometry analysis (reference value: 96.2 % ). The class given is functional. The following applies: read-out: Activity. Background: A flow cytometer gives signals particle by particle.

The test system of series [7] is NCI-H1975. Put plainly: Induction of apoptosis in human NCI-H1975 cells assessed as early apoptotic cells at 0.1 uM incubated for 48 hrs by AnnexinV-FITC/propidium iodide staining based flow cytometry analysis (reference value: 0.11 % ). The class given is functional.
For series [8], the system named is NCI-H1975. Put plainly: Induction of apoptosis in human NCI-H1975 cells assessed as early apoptotic cells at 1.0 uM incubated for 48 hrs by AnnexinV-FITC/propidium iodide staining based flow cytometry analysis (reference value: 0.11 % ). Type of series: functional.
Series [9] has as its system NCI-H1975. Briefly: Induction of apoptosis in human NCI-H1975 cells assessed as necrotic cells at 0.1 uM incubated for 48 hrs by AnnexinV-FITC/propidium iodide staining based flow cytometry analysis (reference value: 3.28 % ). Type of series: functional.
Series [10] relates to NCI-H1975. Put plainly: Antitumor activity against human NCI-H1975 cells xenografted in […] mouse assessed as tumor growth inhibition at 10 mg/kg, ip administered once daily for 24 days relative to control. The settings on record: NCI-H1975, 576 h, time 24 day, read-out: TGI. The class given is functional.
Series [11] in a line: AUC (0 to t) in Sprague-Dawley rat at 10 mg/kg, ip measured upto 24 hrs by LC-MS/MS analysis. The settings on record: in vivo. The class given is ADME, organism-based. Details: dose 10 mg/kg, time < 24 hrs, route ip.
A short description of series [12]: Clearance in Sprague-Dawley rat at 1 mg/kg, iv measured upto 24 hrs by LC-MS/MS analysis. The settings on record: in vivo. Type of series: ADME, organism-based.
Series [13] addresses Protein cereblon/Epidermal growth factor receptor (Homo sapiens) (UniProt P00533+Q96SW2). Put plainly: Protac activity at CRBN/EGFR in human NCI-H1975 cells assessed as induction of EGFR degradation pretreated for 12 hrs followed by compound washout and replaced with fresh medium for 1 hr and measured after 48 hrs post compound washout by Western blot analysis. Type of series: cell-based.

Protein cereblon/Epidermal growth factor receptor, sequence (P00533 25-1210 T790M/L858R limits assumed, stated change not applied): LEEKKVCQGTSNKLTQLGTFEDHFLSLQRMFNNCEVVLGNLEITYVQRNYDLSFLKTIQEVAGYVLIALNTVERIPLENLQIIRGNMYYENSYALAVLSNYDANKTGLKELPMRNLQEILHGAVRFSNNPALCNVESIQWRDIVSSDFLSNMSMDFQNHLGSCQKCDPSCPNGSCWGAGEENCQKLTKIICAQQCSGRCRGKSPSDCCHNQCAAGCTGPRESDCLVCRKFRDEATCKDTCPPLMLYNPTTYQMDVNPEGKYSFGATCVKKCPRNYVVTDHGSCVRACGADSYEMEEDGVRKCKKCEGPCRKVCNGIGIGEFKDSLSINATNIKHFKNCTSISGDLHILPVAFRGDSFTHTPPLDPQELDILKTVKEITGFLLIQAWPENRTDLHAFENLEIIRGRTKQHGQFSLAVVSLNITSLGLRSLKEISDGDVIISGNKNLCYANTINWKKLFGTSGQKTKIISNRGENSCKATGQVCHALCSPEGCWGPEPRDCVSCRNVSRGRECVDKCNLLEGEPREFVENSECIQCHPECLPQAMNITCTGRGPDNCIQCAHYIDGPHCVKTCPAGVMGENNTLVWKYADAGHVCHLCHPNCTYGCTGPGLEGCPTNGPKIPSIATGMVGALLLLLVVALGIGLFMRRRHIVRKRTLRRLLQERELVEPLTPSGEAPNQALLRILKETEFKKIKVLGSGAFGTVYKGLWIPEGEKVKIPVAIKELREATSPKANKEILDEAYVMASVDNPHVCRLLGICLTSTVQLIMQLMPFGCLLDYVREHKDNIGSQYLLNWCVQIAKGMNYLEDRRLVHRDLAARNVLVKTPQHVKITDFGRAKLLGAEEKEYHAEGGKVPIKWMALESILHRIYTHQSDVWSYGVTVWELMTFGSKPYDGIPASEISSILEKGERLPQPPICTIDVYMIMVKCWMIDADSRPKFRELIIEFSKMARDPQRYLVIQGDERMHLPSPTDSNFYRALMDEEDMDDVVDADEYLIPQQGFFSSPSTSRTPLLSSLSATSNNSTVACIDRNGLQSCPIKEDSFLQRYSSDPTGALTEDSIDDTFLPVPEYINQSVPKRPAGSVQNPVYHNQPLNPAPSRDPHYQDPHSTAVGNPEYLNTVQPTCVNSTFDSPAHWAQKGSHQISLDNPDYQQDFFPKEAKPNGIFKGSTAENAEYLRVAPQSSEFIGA
Protein cereblon/Epidermal growth factor receptor, sequence (Q96SW2 whole entry, stated change not applied): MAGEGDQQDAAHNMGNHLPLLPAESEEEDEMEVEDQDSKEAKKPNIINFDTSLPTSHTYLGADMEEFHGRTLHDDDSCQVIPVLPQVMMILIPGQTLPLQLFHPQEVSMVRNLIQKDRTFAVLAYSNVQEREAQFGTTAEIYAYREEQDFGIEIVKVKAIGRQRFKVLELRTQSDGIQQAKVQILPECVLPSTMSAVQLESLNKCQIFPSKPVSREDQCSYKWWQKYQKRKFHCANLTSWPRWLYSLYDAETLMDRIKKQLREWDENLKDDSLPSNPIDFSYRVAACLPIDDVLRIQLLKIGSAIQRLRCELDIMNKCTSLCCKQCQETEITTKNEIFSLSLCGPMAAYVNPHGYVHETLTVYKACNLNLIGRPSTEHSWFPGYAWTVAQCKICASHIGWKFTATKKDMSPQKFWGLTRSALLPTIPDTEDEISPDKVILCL
Protein cereblon/Epidermal growth factor receptor (Homo sapiens), sequence (P00533 25-1210 limits assumed): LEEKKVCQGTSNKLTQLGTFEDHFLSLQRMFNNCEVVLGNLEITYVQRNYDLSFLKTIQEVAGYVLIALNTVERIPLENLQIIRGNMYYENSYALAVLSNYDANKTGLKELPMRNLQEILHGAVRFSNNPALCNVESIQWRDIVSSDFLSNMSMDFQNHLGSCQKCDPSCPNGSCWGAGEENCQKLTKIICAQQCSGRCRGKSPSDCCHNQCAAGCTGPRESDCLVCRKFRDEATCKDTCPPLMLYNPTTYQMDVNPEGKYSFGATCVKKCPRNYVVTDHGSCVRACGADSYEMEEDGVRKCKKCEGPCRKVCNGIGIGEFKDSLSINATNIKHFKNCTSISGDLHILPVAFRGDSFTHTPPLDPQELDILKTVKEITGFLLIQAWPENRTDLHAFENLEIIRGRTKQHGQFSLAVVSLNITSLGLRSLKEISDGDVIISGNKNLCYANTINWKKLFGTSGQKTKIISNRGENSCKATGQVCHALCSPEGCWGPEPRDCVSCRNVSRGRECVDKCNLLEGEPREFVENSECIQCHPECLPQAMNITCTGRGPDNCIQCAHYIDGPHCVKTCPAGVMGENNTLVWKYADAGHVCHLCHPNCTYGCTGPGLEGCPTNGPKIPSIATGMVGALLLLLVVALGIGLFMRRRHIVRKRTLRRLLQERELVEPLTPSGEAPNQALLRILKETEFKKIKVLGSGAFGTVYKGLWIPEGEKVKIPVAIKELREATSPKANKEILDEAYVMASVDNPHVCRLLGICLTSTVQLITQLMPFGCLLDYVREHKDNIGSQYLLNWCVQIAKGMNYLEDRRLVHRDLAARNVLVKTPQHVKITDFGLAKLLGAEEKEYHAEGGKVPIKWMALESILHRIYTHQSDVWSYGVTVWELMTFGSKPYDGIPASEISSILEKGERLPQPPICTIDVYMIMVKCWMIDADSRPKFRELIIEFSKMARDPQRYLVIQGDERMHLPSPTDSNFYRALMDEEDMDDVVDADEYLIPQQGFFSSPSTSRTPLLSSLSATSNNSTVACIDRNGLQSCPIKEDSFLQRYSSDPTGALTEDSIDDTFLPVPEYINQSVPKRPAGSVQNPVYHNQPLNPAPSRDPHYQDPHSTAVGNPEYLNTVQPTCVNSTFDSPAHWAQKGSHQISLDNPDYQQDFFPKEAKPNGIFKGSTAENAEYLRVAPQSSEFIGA
Protein cereblon/Epidermal growth factor receptor (Homo sapiens), sequence (Q96SW2 whole entry partner): as the sequence (Q96SW2 whole entry, stated change not applied) above

What is called IC50 is the concentration at which inhibition is half-maximal. In general, EC50 refers to the midpoint of the concentration-response curve. The AUC(0-t) is exposure summed from dosing to a finite time, without extrapolation to infinity. Low readings indicate less exposure, high ones more exposure. A word on the clearance: it is a measure of how efficiently the substance is removed, as volume per time. Read a low clearance as a low capacity for elimination. In the case of `C#CCN(CCC(=O)Nc1cccc2c1CN(C1CCC(=O)NC1=O)C2=O)CCN(C)c1cc(OC)c(Nc2nccc(-c3cn(C)c4ccccc34)n2)cc1NC(=O)C=C` (stereo not given), the 50% inhibitory concentration (IC50) in series [1] is above 100 µM; in series [2], 0.0581 µM. Further, the Activity entry in series [3] is reported as “Non-Toxic”; in [4] it was “Non-Toxic”; in series [7] it was 1.51%; in series [8], 0.55%; in [9], 0.96%. Also, in [5], the EC50 worked out at 0.0355 µM. For the same compound, in series [6], the viability at 0.1 µM worked out at 90.8%. In [10], the inhibition in vivo at 10 mg/kg was 55.2%. In series [11], this compound came in with an AUC(0-t) at 24 h of 1540 ng·h/mL. The compound further showed a clearance in series [12] (Sprague-Dawley) of 37.1 mL/min/kg.

With `C#CCN(CCCC(=O)Nc1cccc2c1CN(C1CCC(=O)NC1=O)C2=O)CCN(C)c1cc(OC)c(Nc2nccc(-c3cn(C)c4ccccc34)n2)cc1NC(=O)C=C` (stereo not given), the results for the IC50 in series [1] and in series [2] were above 100 µM and 0.0468 µM, respectively. Also, the Activity result is reported as “Non-Toxic” in series [3]; “Non-Toxic” in series [4]; 0.23% in series [7]; 0.72% in series [8]; 9.3% in [9]. In addition, the EC50 in [5] turned out to be 0.0132 µM. Also, the outcome in series [13] was Active. In addition, in series [6], the viability at 0.1 µM amounted to 85.6%. In addition, the inhibition in vivo at 10 mg/kg in series [10] was 63.7%. In addition, the AUC(0-t) at 24 h in [11] stood at 971 ng·h/mL. The compound also showed a CL in series [12] (iv, 1 mg/kg, 24 h) of 34.55 mL/min/kg.
